Source: publication PMC10699557, “A recombinant approach for stapled peptide discovery yields inhibitors of the RAD51 recombinase” (Chemical Science, 2023)
Like-named read-outs stand apart in the source and are kept apart here. Numbered stars: 1 amine (or outer) side, 2 acyl side, 3 side chain; on linkers, the order of the positions; unused ones are H or OH. Bridge positions count the residues as written; N and C are the ends. Ends that are not written are not given here. Peptide text beside a SMILES is read from it. X2 = CN(CC(=O)O)c1nc(CC[*:1])nc(CC[*:2])n1; X1 = Nc1nc(CC[*:1])cc(CC[*:2])n1

Columns and labels:
[1] = biological target: monomeric version of RAD51 (HumRadA22) (Pyrococcus furiosus, UniProt O74036); assay: Fluorescence polarisation (FP) competition assay: displacement of fluorescein-labelled BRC4 repeat; format: binding, archaeal RadA mutant with human Rad51 surface residues; details: 100 nM HumRadA22, 10 nM BRC4-fluorescein, KD calculated from IC50, single titration, three technical replicates per point
Source text: We prepared all stapled peptides from small-scale bacterial cultures as GB1/C-His8 fusions and cyclised them with the DVT linker. For peptides SP10, SP11, SP12 and SP15, correct stapling was confirmed by MS, showing a similar composition to SP2 (Fig. S15–S18 ^†). Thus, we confirm that the pseudo-dilution approach is robust in yielding almost exclusively the cyclised product, irrespective of whether a helical or non-helical motif is being constrained. To examine the effect of introducing a covalent staple on affinity, a mock reaction was done in parallel for each peptide by splitting the IMAC elution into two halves and adding DMSO to the mock control instead of the linker. TCEP (500 μM) was included in the mock reaction to maintain the peptide in linear form by preventing disulfide formation. The peptides were tested in a fluorescence polarisation (FP) assay monitoring the displacement of a fluorescently-labelled BRC4 repeat from a monomeric version of RAD51 (HumRadA22), as reported previously.[25] […]
Fluorescence polarisation competition assay
FP competition assay was a modified version of a protocol described previously. Fluorescein-labelled HsBRC4 probe for this assay was kindly provided by Dr Laurens Lindenburg (Hollfelder group, Department of Biochemistry, University of Cambridge). Black 384-well flat-bottom microplates (Corning, 3821) were used with a 40 μl final reaction volume in all measurements. Following buffer conditions were used: 20 mM CHES pH 9.5, 150 mM NaCl, 0.1% BSA, 0.1% Tween-20. Each reaction contained 100 nM HumRadA22 and 10 nM BRC4-fluorescein. Two-fold serial dilutions of stapled peptides were added to the reactions. A free probe control reaction containing only 10 nM BRC4-fluorescein was used to calibrate gain and focal height. FP measurements were performed on Pherastar FX or Clariostar Plus (BMG Labtech) plate readers equipped with an FP 485-520-520 optic modules. Binding curves were fitted using the four-parameter logistic model with a variable Hill slope using Prism software (Graphpad). Regression fitting was performed using the least squares optimisation algorithm.
KD values were estimated from the fitted IC 50 parameters using a previously reported

[2] = tested on: RAD51:dT60 nucleoprotein filament (full-length human RAD51); assay: Electrophoretic mobility shift assay (EMSA) of nucleoprotein filament disruption; format: biochemical; details: 5 μM full-length human RAD51, 100 nM FAM-dT60, varying peptide concentrations; 50 mM HEPES pH 7.4, 1 mM ATP
Experimental: We evaluated the effect of stapled peptides SP2, SP24 and SP30 on the nucleoprotein filament using electrophoretic mobility shift assay (EMSA, Fig. 3D). A fluorescently labelled dT60 oligonucleotide was incubated with full-length RAD51, after which the peptides were added at different concentrations before separating the products on a polyacrylamide gel.
(§1) Isothermal titration calorimetry
(§2) Peptides were resuspended in MilliQ water to 10 times the desired final concentration.
This was then diluted 10x with the ITC buffer to obtain the final titrant solution (20 mM CHES pH 9.5, 150 mM NaCl, 0.1% Tween-20). HumRadA22 was buffer-exchanged on a NAP-5 desalting column (Cytiva) into ITC buffer and protein concentration was adjusted to 10:9 of the desired final value. One ninth volume of MilliQ water was added to the solution to bring the protein concentration to the desired final value, while maintaining identical buffer:MilliQ volume proportions in both the syringe and the cell. ITC was carried out using a Microcal ITC200 or Malvern PEAQ ITC instruments at 25°C with a 5.00 μCal reference power DP value, stirring speed of 500-750 rpm, 2 sec filter period. Injection spacing, speed and volume, cell/syringe concentrations as well as the number of injections were adjusted for each peptide and its binding properties. ITC data were fitted using a single-site binding model using the Microcal ITC data analysis program in the Origin 7.0 package. Data points affected by baseline spikes were omitted from the analysis.
Circular dichroism spectroscopy
(§3) Dried peptides were dissolved in MilliQ water to 0.3 mg/ml, and then two-fold diluted in 20 mM sodium phosphate, pH 7.4, giving a final solution of 0.15 mg/ml peptide in 10 mM sodium phosphate. CD spectra of selected peptides were recorded on an AVIV 410 circular dichroism spectropolarimeter using a 1 mm path length quartz cuvette. […]
(§4) The ability of linear and stapled BRC repeat peptides to dissociate RAD51-ssDNA nucleofilament was evaluated using an electrophoretic mobility shift assay (EMSA). […]

HumRadA22 = HumRadA22 (Pyrococcus furiosus, UniProt O74036); assay: Isothermal titration calorimetry (ITC) of peptide binding; parameters: species or system archaeal RadA mutant with human Rad51 surface residues; details: read-out: ITC KD; free peptides; 20 mM CHES pH 9.5, 150 mM NaCl, 0.1% Tween-20; 25°C; single-site binding model
Experimental: We then evaluated the binding of free peptides to HumRadA22 using FP competition assay and isothermal titration calorimetry (Table 1 and Fig. 3B and C). […] All three peptides SP2, SP24 and SP30 bound with similar low-nanomolar affinities in ITC, and the binding appears to be slightly weaker relative to the linear BRC8-2 template (Fig. 3C).
as §1, §2
This was then diluted 10x with the ITC buffer to obtain the final titrant solution (20 mM CHES pH 9.5, 150 mM NaCl, 0.1% Tween-20). HumRadA22 was buffer-exchanged on a NAP-5 desalting column (Cytiva) into ITC buffer and protein concentration was adjusted to 10:9 of the desired final value. […]
as §3, §4

[3] = unstapled linear form, mock reaction with DMSO instead of linker plus TCEP, 20 mM CHES pH 9.5, read-out: FP competition KD, nM, Unstapled
[4] = stapled product (linker DVT or DVP as in Table 1), 20 mM CHES pH 9.5, 150 mM NaCl, 0.1% BSA, 0.1% Tween-20, read-out: FP competition KD, nM, Stapled

Molecule: VNSSAFSGFSTASGKKLNVSTEALQKAVKLFSDIENIS [GB1-BRC8-2, linear BRC8-2 template as GB1/C-His8 fusion]
- Kd [1, 3]: 11 nM

Molecule: VNCSAFSGFSTASGKKLNVSTEALCKAVKLFSDIENIS (also: sidechain bridge or staple (positions not given here)) [GB1-SP13, GB1/C-His8 fusion peptide stapled with DVT; unstapled column is its linear mock control]
- Kd [1, 4]: 28 nM
- Kd [1, 3]: 21 nM

Molecule: ACGFSTASGKKLNVSCEALQKAVKLFSDIENIS (also: sidechain bridge or staple (positions not given here)) [GB1-SP10, GB1/C-His8 fusion peptide stapled with DVT; unstapled column is its linear mock control]
- Kd [1, 4]: 27 nM
- Kd [1, 3]: 35 nM

Molecule: SSACSGFSTASGKKLNVSTEACQKAVKLFSDIENIS (also: sidechain bridge or staple (positions not given here)) [GB1-SP12, GB1/C-His8 fusion peptide stapled with DVT; unstapled column is its linear mock control]
- Kd [1, 4]: 14 nM
- Kd [1, 3]: 50 nM

Molecule: VNSSAFSGFSTASGKKLNVSCEALQKACKLFSDIECIS (also: sidechain bridge or staple (positions not given here)) [GB1-SP15, GB1/C-His8 fusion peptide stapled with DVT; unstapled column is its linear mock control]
- Kd [1, 4]: 13 nM
- Kd [1, 3]: 15 nM

Molecule: VNSSAFSGFSTASGKKLNVSCEALQKACKLFSDIENIS (also: sidechain bridge or staple (positions not given here)) [GB1-SP2, GB1/C-His8 fusion peptide stapled with DVT; unstapled column is its linear mock control]
- Kd [1, 4]: 15 nM
- Kd [1, 3]: 6 nM

Molecule: CC(C)C[C@@H]1NC(=O)[C@H](C)NC(=O)[C@H](CCC(N)=O)NC(=O)[C@@H](NC(=O)[C@H](CO)NC(=O)[C@@H](NC(=O)[C@H](CC(N)=O)NC(=O)[C@H](CC(C)C)NC(=O)[C@H](CCCCN)NC(=O)[C@H](CCCCN)NC(=O)CNC(=O)[C@H](CO)NC(=O)[C@H](C)NC(=O)[C@@H](NC(=O)[C@H](CO)NC(=O)[C@H](Cc2ccccc2)NC(=O)CNC(=O)[C@H](CO)NC(=O)CN)[C@@H](C)O)C(C)C)CSCCc2cc(nc(N)n2)CCSC[C@@H](C(=O)N[C@@H](CCCCN)C(=O)N[C@@H](CC(C)C)C(=O)N[C@@H](Cc2ccccc2)C(=O)N[C@@H](CO)C(=O)NCC(=O)O)NC(=O)[C@H](C)NC(=O)[C@H](CCCCN)NC(=O)[C@H](CCC(N)=O)NC1=O [SP24] (H-GSGFSTASGKKLNVSCQALQKACKLFSG-OH; linker 16-23 via X1)
- Depolymerisation of RAD51 from single-stranded DNA (EMSA) [2]: depolymerise RAD51 from single-stranded DNA to similar extent
- Kd (HumRadA22): 21 nM
- Kd ([1]; read-out: FP competition KD, nM, Stapled, stapled product (linker DVT or DVP as in Table 1), 20 mM CHES pH 9.5, 150 mM NaCl, 0.1% BSA, 0.1% Tween-20): 13 nM

Molecule: VNCSAFSGFSTASGKKLCVS (also: sidechain bridge or staple (positions not given here)) [GB1-SP14, GB1/C-His8 fusion peptide stapled with DVT; unstapled column is its linear mock control]
- Kd [1, 4]: > 500 nM
- Kd [1, 3]: > 500 nM

Molecule: VNSSAFSGFSTASGKKLNVSTCALQKAVCLFSDIENIS (also: sidechain bridge or staple (positions not given here)) [GB1-SP8, GB1/C-His8 fusion peptide stapled with DVT; unstapled column is its linear mock control]
- Kd [1, 4]: 29 nM
- Kd [1, 3]: 45 nM

Molecule: ACSGFSTASGKKLNCS (also: sidechain bridge or staple (positions not given here)) [GB1-SP16, GB1/C-His8 fusion peptide stapled with DVT; unstapled column is its linear mock control]
- Kd [1, 4]: > 500 nM
- Kd [1, 3]: > 500 nM

Molecule: VNSSAFSGFCTASGKKLNVSCEALQKAVKLFSDIENIS (also: sidechain bridge or staple (positions not given here)) [GB1-SP7, negative control GB1/C-His8 fusion peptide stapled with DVT; unstapled column is its linear mock control]
- Kd [1, 3]: 39 nM

Molecule: H-GSVNSSAFSGFSTASGKKLNVSCEALQKACKLFSDIENISGSS-OH (linker 23-30 via X2) [SP2]
- Depolymerisation of RAD51 from single-stranded DNA (EMSA) [2]: depolymerise RAD51 from single-stranded DNA to similar extent

Molecule: VNSSAFSGFSTASGKKLNVSTEALCKAVKLFCDIENIS (also: sidechain bridge or staple (positions not given here)) [GB1-SP9, GB1/C-His8 fusion peptide stapled with DVT; unstapled column is its linear mock control]
- Kd [1, 4]: 51 nM
- Kd [1, 3]: 57 nM

Molecule: SCFSTASGKKLNVSCEALQKAVKLFSDIENIS (also: sidechain bridge or staple (positions not given here)) [GB1-SP11, GB1/C-His8 fusion peptide stapled with DVT; unstapled column is its linear mock control]
- Kd [1, 4]: 36 nM
- Kd [1, 3]: 29 nM

Molecule: SCEALQKACKLFSDIENIS (also: sidechain bridge or staple (positions not given here)) [GB1-SP1, GB1/C-His8 fusion peptide stapled with DVT; unstapled column is its linear mock control]
- Kd [1, 4]: > 500 nM
- Kd [1, 3]: > 500 nM
